Experimental data taken from US12649719B2, “Modulators of hemoglobin” (Global Blood Therapeutics, Inc., priority 2020, dated 2026).

Key:
Hb = target: T1, Hb (Homo sapiens, UniProt P68871+P69905); assay: Whole blood assay: oxygen equilibrium curves (Hemox Analyzer), change in O2 affinity of Hb; type: cell-based; settings: whole blood incubated 1 h at 37° C., equimolar ratio of hemoglobin to compound; sodium salts of 2B (Enantiomer 1), 4B, 5B used
T1 construct: from tissue
Experimental: Oxygen equilibrium curves (OECs) were collected using a TCS Hemox Analyzer (TCS Scientific Company, New Hope, PA, USA) to measure changes in the binding affinity of O2 to Hb. Whole blood was incubated for 1 h at 37° C. with the indicated compounds in an equimolar ratio of hemoglobin to compound and diluted into TES (2-[[1,3-dihydroxy-2-(hydroxymethyl)propan-2-yl]amino]ethanesulfonic acid)/saline buffer prior to measurements. The diluted samples were then oxygenated with compressed air within the Hemox Analyzer and the OECs were collected during deoxygenation as previously described (Guarnone et al., Haematologica, 1995, 80, 426-430). p 50 (partial pressure of 02 at which Hb is 50% saturated with 02) values were obtained using a non-linear regression analysis. Percentage change in p 50 [Δp50(%)]was calculated as follows: Δp50(%)=[(p 50 of control)-p 50 with compound)/p 50 control]x 100. The sodium salts of compounds 2B (Enantiomer 1), 4B, and 5B described above were used.

Rat PK, oral gavage = type: in vivo; settings: fasted male Sprague-Dawley rats, oral gavage 2 mg/kg and/or 10 mg/kg, sodium salt of 5B used; for half-life: male, Sprague-Dawley, rat, whole blood, po; for T1/2: blood
Experimental: A group of fasted male Sprague-Dawley rats were dosed via oral gavage at 2 mg/kg and/or 10 mg/kg with test articles formulated in 0.5% methylcellulose suspension with 0.01% polysorbate 80 in PBS (phosphate buffered saline). Blood samples were collected through jugular vein at pre-selected time points. Blood samples were prepared by protein precipitation with ACN, vortexed and then centrifuged before supernatants were transferred for bioanalysis. Test article concentrations were measured by HPLC-MS-MS. Pharmacokinetic parameters were calculated using non-compartment analysis. The T1/2 was calculated via a linear regression of the terminal phase of the blood-time concentration profile.
Results for various compounds disclosed herein (sodium salt of compound 5B described above was used) and select reference compounds (Compound A and Compound B) are summarized in Table 5A and Table 5B.

T1 sequence (P69905 2-142 limits assumed): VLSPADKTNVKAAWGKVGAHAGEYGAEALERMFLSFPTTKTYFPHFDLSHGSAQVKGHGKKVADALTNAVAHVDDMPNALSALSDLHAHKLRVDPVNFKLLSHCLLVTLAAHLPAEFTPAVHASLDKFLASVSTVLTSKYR
T1 sequence (P68871 2-147 limits assumed): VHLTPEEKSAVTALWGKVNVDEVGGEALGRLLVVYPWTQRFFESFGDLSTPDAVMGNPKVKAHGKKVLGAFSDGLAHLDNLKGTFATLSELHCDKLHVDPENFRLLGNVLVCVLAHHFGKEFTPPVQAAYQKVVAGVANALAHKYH

| Structure (SMILES) | Delta-p50 (%) (Hb) | half-life (Rat PK, oral gavage) | T1/2 (Rat PK, oral gavage) |
| --- | --- | --- | --- |
| O=Cc1c(O)cccc1OC[C@@H]1CCCCN1C(=O)c1cccnc1C(=O)O [Compound 1B, 3-[(2S)-2-[(2-formyl-3-hydroxyphenoxy)methyl]piperidine-1-carbonyl]pyridine-2-carboxylic acid] | 0.4% | 11.7 h |  |
| O=Cc1c(O)cccc1OCC1CSCCN1C(=O)c1ccccc1C(=O)O (single isomer, unassigned) [Compound 5A (Enantiomer 1), 2-(3-((2-formyl-3-hydroxyphenoxy)methyl)thiomorpholine-4-carbonyl) benzoic acid] | 11.04% |  | 213 h |
| O=Cc1c(O)cccc1OC[C@@H]1CCCCN1C(=O)c1cccnc1CC(=O)O [Compound 5B, (S)-2-(3-(2-((2-formyl-3-hydroxyphenoxy)methyl)piperidine-1-carbonyl)pyridin-2-yl)acetic acid] | −3.32% | 120 h |  |
| O=Cc1c(O)cccc1OCC1CSCCN1C(=O)c1cccnc1C(=O)O (single isomer, unassigned) [Compound 6B (Enantiomer 1), 3-[3-[(2-formyl-3-hydroxyphenoxy)methyl]thiomorpholine-4-carbonyl]pyridine-2-carboxylic acid] | 14.15% |  |  |
| O=Cc1c(O)cccc1OC[C@@H]1COCCN1C(=O)c1cccnc1C(=O)O [Compound 3B, 3-[(3S)-3-[(2-formyl-3-hydroxyphenoxy)methyl]morpholine-4-carbonyl]pyridine-2-carboxylic acid] | 0.65% |  |  |
| O=Cc1c(O)cccc1OCC1CSCCN1C(=O)c1ccccc1CC(=O)O (stereo not drawn) [Compound 6A, 2-(2-{3-[(2-formyl-3-hydroxyphenoxy)methyl]thiomorpholine-4-carbonyl}phenyl)acetic acid] | 5.09% |  |  |
| O=Cc1c(O)cccc1OC[C@@H]1COCCN1C(=O)c1ccccc1 [Reference Compound B, reference compound] |  | 29.8 h |  |
| O=Cc1c(O)cccc1OCC1CSCCN1C(=O)c1cccnc1CC(=O)O (single isomer, unassigned) [Compound 2B (Enantiomer 1), 2-{3-[3-[(2-formyl-3-hydroxyphenoxy)methyl]thiomorpholine-4-carbonyl]pyridin-2-yl} acetic acid] | 10.72% |  |  |
| O=Cc1c(O)cccc1OCC1CSCCN1C(=O)c1ccccc1C(=O)O (single isomer, unassigned) [Compound 5A (Enantiomer 2), 2-(3-((2-formyl-3-hydroxyphenoxy)methyl)thiomorpholine-4-carbonyl)benzoic acid] | 19.57% |  | 13 h |
| O=Cc1c(O)cccc1OC[C@@H]1CSCCN1C(=O)c1ccccc1CCC(=O)O [Compound 9A, 3-{2-[(3R)-3-[(2-formyl-3-hydroxyphenoxy)methyl]thiomorpholine-4-carbonyl]phenyl}propanoic acid] | 46.78% | 88.7 h |  |
| O=Cc1c(O)cccc1OC[C@@H]1COCCN1C(=O)c1ccccc1CCC(=O)O [Compound 8A, 3-{2-[(3S)-3-[(2-formyl-3-hydroxyphenoxy)methyl]morpholine-4-carbonyl]phenyl} propanoic acid] | 55.01% | 102 h |  |
| O=Cc1c(O)cccc1OC[C@@H]1CCCCN1C(=O)c1ccccc1CC(=O)O [Compound 4A, 2-{2-[(2S)-2-[(2-formyl-3-hydroxyphenoxy)methyl]piperidine-1-carbonyl]phenyl} acetic acid] | 63.6% | 89.2 h |  |
| O=Cc1c(O)cccc1OC[C@@H]1COCCN1C(=O)c1cccnc1CC(=O)O [Compound 4B, 2-{3-[(3S)-3-[(2-formyl-3-hydroxyphenoxy)methyl]morpholine-4-carbonyl]pyridin-2-yl} acetic acid] | −8.28% |  |  |
| O=Cc1c(O)cccc1OC[C@@H]1COCCN1C(=O)c1ccccc1CC(=O)O [Compound 3A, 2-{2-[(3S)-3-[(2-formyl-3-hydroxyphenoxy)methyl]morpholine-4-carbonyl]phenyl}acetic acid] | 11.72% |  |  |
| O=Cc1c(O)cccc1OC[C@@H]1CCCCN1C(=O)c1ccccc1CCC(=O)O [Compound 7A, 3-{2-[(2S)-2-[(2-formyl-3-hydroxyphenoxy)methyl]piperidine-1-carbonyl]phenyl}propanoic acid] | 77.13% | 52 h |  |
| O=Cc1c(O)cccc1OC[C@@H]1COCCN1C(=O)c1ccccc1C(=O)O [Compound 2A, 2-[(3S)-3-[(2-formyl-3-hydroxyphenoxy)methyl]morpholine-4-carbonyl]benzoic acid] | 4.19% |  |  |
| O=Cc1c(O)cccc1OC[C@@H]1CCCCN1C(=O)c1ccccc1 [Reference Compound A, reference compound] |  | 25.9 h |  |
| O=Cc1c(O)cccc1OC[C@@H]1CCCCN1C(=O)c1ccccc1C(=O)O [Compound 1A, 2-[(2S)-2-[(2-formyl-3-hydroxyphenoxy)methyl]piperidine-1-carbonyl]benzoic acid] | 66.43% | 110 h |  |
